# Columns and labels:
# [1] = test system: THP1 human macrophage cells; assay: Stimulation of THP-1 cells, IL-6 at 6 or 36 hours post stimulation; type: cell-based; conditions: THP1-derived macrophages, IFNγ + LPS, 0.1 to 500 μM, FIG. 9
# Method: Human immortalized monocytic THP-1 cells were maintained in phenol red free RPMI 1640 medium containing 10% (v/v) fetal bovine serum (FBS), 2 mM L-glutamine, penicillin (100 units/mL), streptomycin (100 μg/mL), amphotericin B (2.5 μg/mL), and 50 μM beta-mercaptoethanol (BME) at 37° C. with 5% (v/v) CO2. THP-1 cells were seeded in 1 mL of THP-1 medium (cell culture medium containing 10% (v/v) FBS, 2 mM L-glutamine, penicillin (100 units/mL), streptomycin (100 μg/mL), amphotericin B ([…]), and 50 μM BME)/well at a density of 1×10^6 cells/mL in six-well plates. Cells were differentiated by adding 10, 50, or 100 nM phorbol 12-myristate 13-acetate (PMA) to each well before incubating cells for 5.5 h at 37° C. with 5% (v/v) CO2. Without removing the media, different concentrations (either 0, 0.1, 1.0, 10, 100, 200, or 500 μM) of the compound were added to each well. Cells were stimulated, within 30 min by adding 20 ng/mL interferon gamma (IFNγ) and 100 ng/mL lipopolysaccharide (LPS) to each well. Following stimulation, the THP-1 cells were incubated for 6 or 36 hours at 37° C. with 5% (v/v) CO2. Supernatant was collected and stored at −80° C. until use.
# IL-6 released from supernatants collected at 6 or 36 hours post stimulation with IFNγ and LPS were measured using the AlphaLISA Human IL-6 detection kit.
# [2] = Stability in plasma (mouse); type: in vitro ADME; conditions: after 120 minutes, 37° C.
# Method: The pH of plasma was adjusted to 7.4±0.1 if required. 1 mM intermediate solution was prepared by diluting 10 μL of the 10 mM stock solution of 1 with 90 μL DMSO; 1 mM intermediate of positive control propantheline bromide was prepared by diluting 10 μL of the stock solution with 90 μL ultra-pure water. 100 μM dosing solution was prepared by diluting 10 μL of the 1 mM intermediate solution with 90 μL of 45% MeOH/H2O. 98 μL of blank plasma was spiked with 2 μL of the 100 μM dosing solution to achieve a final concentration of 2 μM of the compound in duplicate. Samples were incubated at 37° C. in a water bath. At each time point (0, 10, 30, 60 and 120 min), 400 μL of stop solution (200 ng/mL tolbutamide plus 200 ng/mL labetalol in 50% ACN/MeOH) was added and was mixed thoroughly to precipitate protein. Sample plates were centrifuged at 4,000 rpm for 10 min. An aliquot of supernatant (100 μL) was transferred from each well and was mixed with 200 μL ultra-pure water. The samples were shaken at 800 rpm for about 10 min before LC/MS/MS analysis.
# The remaining percentage of compound 1 (test article) after incubation was calculated according to the following equation.
# [3] = Stability in hepatocytes (mouse); type: in vitro ADME; conditions: cryopreserved mouse hepatocytes (suspension)
# Method: 10 mM of 1 was provided as a 1000× stock solution in dimethylsulfoxide (DMSO), and the stock solution was diluted to 1 mM with DMSO in 96-well plates. 30 mM of positive compounds (7-ethoxycoumarin and 7-hydroxycoumarin) were provided as a 1000× stock solution in DMSO, and the stock solution was diluted to 3 mM with DMSO in 96-well plates. 20 μL of 1000× stock solution of each compound were pipetted and was mixed with 380 μL of 45% MeOH/H2O to obtain 50 μM of 1 and 150 μM of the positive control compound solutions to form 50× intermediate solutions. 20 μL of 50× intermediate solution of each compound were pipetted and was mixed with […] of pre-warmed incubation medium to obtain 5 μM of 1 and 15 μM of the positive control compound solutions to form 5× working solutions. The incubation medium was Williams' Medium E (no phenol red) containing 2 mM L-glutamine and 25 mM HEPES. 10 μL of 5× working solutions of each compound were pipetted into appropriate wells in a 96-well plate for time points of 0 minutes, 15 minutes, 30 minutes, 60 minutes, and 90 minutes in duplicates. The plates with compounds were kept warm in an incubator at 37° C.
# A cell suspension was prepared by thawing cryopreserved cells, isolating the cells, and suspending the cells in thawing medium. […]
# The remaining percentage of 1 after incubation was calculated according to the following equation. […]
Structure (SMILES),percent inhibition relative to Control of IL-6 levels secreted [1],remaining percentage after incubation [2],half-life at 1 µM [3]
"C[C@H](CC/C=C/C(=O)OC(C)(C)C)O[C@@H]1O[C@@H](C)[C@H](O)C[C@H]1O [Compound 1, tert-butyl (2E,6R)-6-{[(2R,3R,5R,6S)-3,5-dihydroxy-6-methyloxan-2-yl]oxy}hept-2-enoate]","inhibited IL-6 expression in statistically significant, dose-dependent manner",–,–
"C[C@H](CC/C=C/C(=O)O)O[C@@H]1O[C@@H](C)[C@H](O)C[C@H]1O [ascr #7, reference compound]",–,103.4%,> 217 min
